≈ marks a conversion by molar mass, not a printed value.
How the values were obtained:
Escherichia coli [1] = test: Antibacterial activity against Escherichia coli ATCC 35218 assessed as bacterial growth inhibition incubated for 18 hrs by agar dilution method; type: functional
Escherichia coli [2] = test: Antibacterial activity against Escherichia coli assessed as bacterial growth inhibition by broth microdilution method; type: functional
Escherichia coli [3] = test: Antibacterial activity against Escherichia coli ATCC 25922 assessed as bacterial growth inhibition; type: functional
Escherichia coli [4] = test: Antibacterial activity against drug-sensitive Escherichia coli assessed as bacterial growth inhibition; type: functional
Escherichia coli [5] = test: Antibacterial activity against clinical isolate Escherichia coli assessed as bacterial growth inhibition incubated for 24 hrs by agar dilution method; type: functional
Escherichia coli [6] = test: Antibacterial activity against Escherichia coli assessed as bacterial growth inhibition incubated for 18 hrs by agar dilution method; type: functional
Escherichia coli [7] = test: Antibacterial activity against Escherichia coli KC-14 infected in po dosed mouse assessed as bacterial growth inhibition; type: functional
[8] = Cmax in mouse at 20 mg/kg, po; type: ADME, organism-based; design: dose 20 mg/kg, route po; details: in vivo
[9] = AUC(0 to infinity) in mouse at 20 mg/kg, po; type: ADME, organism-based; design: dose 20 mg/kg, route po; details: in vivo
Escherichia coli [10] = test: Antibacterial activity against Escherichia coli KC-14 assessed as bacterial growth inhibition; type: functional
[11] = Half life in mouse at 20 mg/kg, po; type: ADME, organism-based; details: in vivo
Escherichia coli [12] = test: Antibacterial activity against Escherichia coli assessed as zone of inhibition at 5 ug per disc; type: functional; details: read-out: DIZ
Escherichia coli [13] = test: Antibacterial activity against Escherichia coli K-12 C600 assessed as bacterial growth inhibition; type: functional
Escherichia coli [14] = test: Antibacterial activity against Escherichia coli ATCC 700603 assessed as bacterial growth inhibition by agar dilution method; type: functional
Escherichia coli [15] = test: Antibacterial activity against Escherichia coli H560 assessed as bacterial growth inhibition; type: functional
Escherichia coli [16] = test: Antibacterial activity against Escherichia coli TolC assessed as bacterial growth inhibition; type: functional
Escherichia coli [17] = test: Antibacterial activity against Escherichia coli assessed as bacterial growth inhibition by agar dilution method; type: functional
Escherichia coli [18] = test: In vivo antibacterial activity against Escherichia coli H560 infected in po dosed CD-1 mouse assessed as bacterial growth inhibition; type: functional; details: read-out: PD50
Escherichia coli [19] = test: In vivo antibacterial activity against Escherichia coli H560 infected in sc dosed CD-1 mouse assessed as bacterial growth inhibition; type: functional; details: read-out: PD50
Escherichia coli [20] = test: Antibacterial activity against Escherichia coli ATCC 25922 infected in iv dosed mouse assessed as bacterial growth inhibition; type: functional
Escherichia coli [21] = test: Antibacterial activity against Escherichia coli 2010-05 assessed as bacterial growth inhibition measured after 24 hrs by agar dilution method; type: functional
Escherichia coli [22] = test: Antibacterial activity against Escherichia coli 2010-29 assessed as bacterial growth inhibition measured after 24 hrs by agar dilution method; type: functional
Escherichia coli [23] = test: Antibacterial activity against Escherichia coli NCTC 10419 assessed as bacterial growth inhibition; type: functional
Escherichia coli [24] = test: Antibacterial activity against Escherichia coli assessed as bacterial growth inhibition; type: functional
Escherichia coli [25] = test: Antibacterial activity against Escherichia coli NIHJ JC-2 assessed as bacterial growth inhibition; type: functional
Escherichia coli [26] = test: Antibacterial activity against Escherichia coli assessed as bacterial growth inhibition by microdilution method; type: functional
Escherichia coli [27] = test: In vivo antibacterial activity against Escherichia coli NCTC 10419 infected in po dosed CF-mouse assessed as bacterial growth inhibition; type: functional, organism-based
Escherichia coli [28] = test: Antibacterial activity against Escherichia coli assessed as bacterial growth inhibition incubated for 18 hrs by twofold serial dilution assay; type: functional
Escherichia coli [29] = test: Antibacterial activity against Escherichia coli NCDC 134 assessed as bacterial growth inhibition; type: functional
Escherichia coli [30] = test: Antibacterial activity against Escherichia coli DH5alpha assessed as bacterial growth inhibition; type: functional
Escherichia coli [31] = test: Potency index, ratio of norfloxacin MIC to compound IC50 for antibacterial activity against Escherichia coli DH52; type: functional
Escherichia coli [32] = test: Antibacterial activity against Escherichia coli JM109 assessed as bacterial growth inhibition; type: functional
Escherichia coli [33] = test: Antibacterial activity against Escherichia coli DH52 assessed as bacterial growth inhibition; type: functional
Escherichia coli [34] = test: Potency index, ratio of ciprofloxacin MIC to compound IC50 for antibacterial activity against Escherichia coli JM109; type: functional
Escherichia coli [35] = test: Potency index, ratio of norfloxacin MIC to compound IC50 for antibacterial activity against Escherichia coli JM109; type: functional
Escherichia coli [36] = test: Potency index, ratio of ciprofloxacin MIC to compound IC50 for antibacterial activity against Escherichia coli DH52; type: functional; details: time 24 hrs
Escherichia coli [37] = test: Antibacterial activity against Escherichia coli ISF 432 assessed as bacterial growth inhibition; type: functional
Escherichia coli [38] = test: Antibacterial activity against Escherichia coli ATCC 8739 assessed as bacterial growth inhibition; type: functional
[39] = Escherichia coli, KC-14, po, read-out: ED50

With `CO/N=C1\CN(c2nc3c(cc2F)c(=O)c(C(=O)O)cn3[C@@H]2C[C@@H]2F)CC1CN` (some centres not stated) the MIC (Escherichia coli [1]) was under 0.008 µg/mL.

With `CCn1cc(C(=O)NN)c(=O)c2cc(Cl)ccc21` the MIC (Escherichia coli [2]) was 0.0625 µg/mL (≈ 0.235 µM).

With `C[C@@H](O)[C@H]1C(=O)N2C(C(=O)O)=C(COC(=O)N[C@H]3CCN(c4c(F)cc5c(=O)c(C(=O)O)cn(C6CC6)c5c4F)C3)S[C@H]12` the MIC (Escherichia coli [3]) was at most 0.06 µg/mL.

For `O=C(O)c1cn(C2CC2)c2cc(N3CCN([C@@H]4O[C@H](CO)[C@H](O)[C@H](O)[C@H]4O)CC3)c(F)cc2c1=O`, the MIC (Escherichia coli [4]) was at most 0.03 µg/mL.

Work on `CO/N=C1\CN(c2nc3c(cc2F)c(=O)c(C(=O)O)cn3C2CC2)CC1CN` (configuration not stated) [GEMIFLOXACIN] yielded an MIC90 (Escherichia coli [5]) of 32 µg/mL (≈ 82.2 µM).

In the case of `COc1c(N2C[C@@H](N)C3(CC3)C2)c(F)cc2c(=O)c(C(=O)O)cn([C@@H]3C[C@@H]3F)c12`, the MIC (Escherichia coli [6]) is reported as at most 0.006 µg/mL.

`COc1c(N2CCN(C)CC2)c(F)cc2c(=O)c(C(=O)O)c3n(c12)C(C)S3` (configuration not stated) showed an ED50 (Escherichia coli [7]; [39]) of 1.28 mg/kg, a Cmax [8] of 840 ng/mL and an AUC(0-inf) [9] of 2700 ng·h/mL. It also gave an MIC (Escherichia coli [10]) of 0.1 µg/mL (≈ 0.254 µM) and a half-life [11] of 4.9 h.

`CC1COc2c(N3CCN(C)CC3)c(F)cc3c(=O)c(C(=O)O)cn1c23` (configuration not stated) [OFLOXACIN] showed an ED50 (Escherichia coli [7]) of 0.55 mg/kg, an ED50 (Escherichia coli [7]; [39]) of 1.1 mg/kg and a zone of inhibition at 5 µg/disc (Escherichia coli [12]) of 22 mm. It also gave an MIC (Escherichia coli [10]) of 0.1 µg/mL (≈ 0.277 µM) and an MIC (Escherichia coli [13]) of 0.2 µg/mL (≈ 0.553 µM).

In the case of `NC1CCN(c2c(F)cc3c(=O)c(C(=O)O)cn(C4CC4)c3c2Cl)C1` (configuration not stated) [CLINAFLOXACIN], the MIC (Escherichia coli [14]) is reported as 1 µg/mL (≈ 2.73 µM).

In the case of `COc1c(N2C[C@@H]3CCCN[C@@H]3C2)c(F)cc2c(=O)c(C(=O)O)cn(C3CC3)c12` [MOXIFLOXACIN], the MIC (Escherichia coli [15]) is reported as 0.006 µg/mL (≈ 0.0149 µM), the MIC (Escherichia coli [16]) is reported as 11.5 µg/mL (≈ 28.7 µM) and the MIC90 (Escherichia coli [17]) is reported as 4 µg/mL (≈ 9.96 µM).

With `O=C(O)c1cn(-c2ccc(F)cc2F)c2nc(N3CCCC3)c(F)cc2c1=O` the ED50 (Escherichia coli [18]) was 0.5 mg/kg, the MIC (Escherichia coli [15]) was 0.025 µg/mL (≈ 0.0642 µM) and the ED50 (Escherichia coli [19]) was 0.2 mg/kg.

With `COc1c(N2CCN(C)CC2)c(F)cc2c(=O)c(C(=O)O)c3n(c12)C(CF)S3` (configuration not stated) the ED50 (Escherichia coli [7]; [39]) was 0.76 mg/kg, the Cmax [8] was 3200 ng/mL and the AUC(0-inf) [9] was 3500 ng·h/mL. For the same compound, the MIC (Escherichia coli [10]) was 0.025 µg/mL (≈ 0.0608 µM) and the half-life [11] was 1.2 h.

With `C[C@@H](O)[C@H]1C(=O)N2C(C(=O)O)=C(COC(=O)N3CCN(c4cc5c(cc4F)c(=O)c(C(=O)O)cn5C4CC4)CC3)S[C@H]12` the MIC (Escherichia coli [3]) was at most 0.06 µg/mL.

In the case of `CN1CCN(c2cc3c(cc2F)c(=O)c(C(=O)O)cn3-c2ccc(O)cc2)CC1`, the ED50 (Escherichia coli [20]) is reported as 0.75 mg/kg.

`C[C@H]1COc2c(N3CCN(C)CC3)c(F)cc3c(=O)c(C(=O)O)cn1c23.C[C@H]1COc2c(N3CCN(C)CC3)c(F)cc3c(=O)c(C(=O)O)cn1c23.O` [LEVOFLOXACIN] showed an MIC90 (Escherichia coli [17]) of 4 µg/mL, an MIC (Escherichia coli [21]) of 32 µg/mL and an MIC90 (Escherichia coli [5]) of 32 µg/mL. For the same compound, the MIC (Escherichia coli [22]) was 32 µg/mL.

Compound `O=C(O)c1cn(C2CC2)c2cc(N3CCNCC3)c(F)cc2c1=O` [CIPROFLOXACIN] has an ED50 (Escherichia coli [7]; [39]) of 0.45 mg/kg, an ED50 (Escherichia coli [18]) of 1 mg/kg and an MIC (Escherichia coli [15]) of at most 0.003 µg/mL. For the same compound, the MIC (Escherichia coli [23]) was 0.0011 µg/mL (≈ 0.00332 µM), the ED50 (Escherichia coli [19]) was 0.3 mg/kg and the MIC (Escherichia coli [24]) was 0.025 µg/mL (≈ 0.0754 µM). For the same compound, the MIC (Escherichia coli [16]) was 8.21 µg/mL (≈ 24.8 µM), the MIC90 (Escherichia coli [17]) was 4 µg/mL (≈ 12.1 µM) and the MIC (Escherichia coli [25]) was 0.0063 µg/mL (≈ 0.019 µM). For the same compound, the MIC (Escherichia coli [21]) was 64 µg/mL (≈ 193 µM), the MIC (Escherichia coli [22]) was 64 µg/mL (≈ 193 µM) and the MIC (Escherichia coli [26]) was at most 0.03 µg/mL. The EC50 (Escherichia coli [27]) was 1.25 mg/kg, the MIC (Escherichia coli [28]) was at most 0.015 µg/mL and the MIC (Escherichia coli [29]) was 40 µg/mL (≈ 121 µM).

`CC(C)=CCC/C(C)=C/Cc1c(C)[nH]c2ccccc2c1=O` gave an MIC50 (Escherichia coli [16]) of over 1.41 µg/mL and an MIC50 (Escherichia coli [30]) of over 64 µg/mL.

Work on `COc1ccccc1CO/N=C1\CCN(c2c(F)cc3c(=O)c(C(=O)O)cn(C4CC4)c3c2OC)CC1N` (configuration not stated) yielded an MIC (Escherichia coli [1]) of under 0.008 µg/mL.

For `Cc1c(N2CCN(c3nc4ccccc4[nH]3)CC2)c(F)cc2c(=O)c(C(=O)O)cn(C3CC3)c12`, the Ratio (Escherichia coli [31]) was 2, the MIC (Escherichia coli [32]) was 0.125 µg/mL (≈ 0.271 µM) and the MIC (Escherichia coli [33]) was 0.125 µg/mL (≈ 0.271 µM). For the same compound, the Ratio (Escherichia coli [34]) was 2, the Ratio (Escherichia coli [35]) was 2 and the Ratio (Escherichia coli [36]) was 2.

For `Cc1c(N2CCc3ccccc3C2)c(N)cc2c(=O)c(C(=O)O)cn(C3CC3)c12`, the MIC (Escherichia coli [37]) was 0.008 µg/mL (≈ 0.0205 µM) and the MIC (Escherichia coli [38]) was 0.008 µg/mL (≈ 0.0205 µM).

In the case of `O=C(O)c1cn(C2CC2)c2cc(N3CCN([C@@H]4O[C@H](CO)[C@@H](O)[C@H](O)[C@H]4O)CC3)c(F)cc2c1=O`, the MIC (Escherichia coli [4]) is reported as at most 0.03 µg/mL.

For `Cc1c(N2CCN(Cc3nc4ccccc4n3Cc3ccc(Cl)cc3Cl)CC2)c(F)cc2c(=O)c(C(=O)O)cn(C3CC3)c12`, the Ratio (Escherichia coli [31]) was 2, the MIC (Escherichia coli [32]) was 0.125 µg/mL (≈ 0.197 µM) and the MIC (Escherichia coli [33]) was 0.125 µg/mL (≈ 0.197 µM). It also gave a Ratio (Escherichia coli [34]) of 2, a Ratio (Escherichia coli [35]) of 2 and a Ratio (Escherichia coli [36]) of 2.

Reference: ChEMBL document CHEMBL5244219, “Recent developments of quinolone-based derivatives and their activities against Escherichia coli” (Eur J Med Chem, 2018)
